Source: US5912264A, “6-halo-or nitrate-substituted paclitaxels” (Bristol-Myers Squibb Company, priority 1998, dated 1999)
Where two headings read alike, the source gives them in different places.

What was measured:
M109 lung carcinoma = assay: Mice M109 Model (In-Vivo), median survival time % T/C; design: species or system mice (Balb/c x DBA/2 F1 hybrid); conditions: Mus musculus, ip, days 1, 5 and 9 or days 5 and 8 post-implant, median survival T/C x 100
Description: Balb/c x DBA/2 F1 hybrid mice were implanted intraperitoneally, as described by William Rose in Evaluation of Madison 109 Lung Carcinoma as a Modelfor Screening Antitumor Drugs, Cancer Treatment Reports, 65, No. 3-4 (1981), with 0.5 mL of a 2% (w/v) brei of M109 lung carcinoma.
Mice were treated with compounds under study by receiving intraperitoneal injections of various doses on either days 1, 5 and 9 post-tumor implant or days 5 and 8 post-implant. Mice were followed daily for survival until approximately 75-90 days post-tumor implant. One group of mice per experiment remained untreated and served as the control group.
Median survival times of compound-treated (T) mice were compared to the median survival time of the control (C) mice. The ratio of the two values for each compound-treated group of mice was multiplied by 100 and expressed as a percentage (i.e. % T/C) in the following Table II for representative compounds.

[1] = system: HCT-116 human colon carcinoma cells; assay: Cytotoxicity (in vitro) in HCT-116 human colon carcinoma cells, MTS assay; type: cell-based; conditions: read-out: IC50 (nM) HCT 116
Description: Cytoxicity was assessed in HCT-116 human colon carcinoma cells by MTS (3-(4,5-dimethylthiazol-2-yl)-5-(3-carboxymethoxyphenyl)-2-(4-sulphenyl)-2H-tetrazolium, inner salt) assay as reported in T. L. Riss, et. al., "Comparison of MTT, XTT, and a novel tetrazolium compound MTS for in vitro proliferation and chemosensitivity assays.," Mol. Biol. Cell 3 (Suppl.):184a, 1992. Cells were plated at 4,000 cell/well in 96 well microtiter plates and 24 hours later drugs were added and serial diluted. The cells were incubated at 37° form 72 hours at which time the tetrazolium dye, MTS at 333 μg/ml (final concentration), in combination with the electron coupling agent phenazine methosulfate at 25 μM (final concentration) was added. A dehydrogenase enzyme in live cells reduces the MTS to a form that absorbs light at […] which can be quantitated spectrophotometrically. The greater the absorbance the greater the number of live cells. The results are expressed as an IC50, which is the drug concentration required to inhibit cell proliferation (i.e. absorbance at 450 nm) to 50% of that of untreated control cells. The IC50 values for compounds evaluated in this assay are evaluated in Table I.

[2] = in vivo animal models; cited from earlier work
[3] = HCT-116, 72 hours, MTS, inhibition of cell proliferation to 50% of untreated control

Row | Compound | IC50 ([1]; HCT-116, 72 h) [nM] | response vs control in vivo at 100 mg/kg (M109 lung carcinoma) [%] | further results
1 | CC(=O)O[C@H]1C(=O)[C@]2(C)C[C@@H](I)[C@H]3OC[C@@]3(OC(C)=O)[C@H]2[C@H](OC(=O)c2ccccc2)[C@]2(O)C[C@H](OC(=O)[C@H](O)[C@@H](NC(=O)c3ccccc3)c3ccccc3)C(C)=C1C2(C)C [Iq, 7-Deoxy-6-β-Iodopaclitaxel] | 2.24 | – | response vs control in vivo at 50 mg/kg (M109 lung carcinoma): 129%
2 | CC(=O)O[C@H]1C(=O)[C@@]2(C)[C@H]([C@H](OC(=O)c3ccccc3)[C@]3(O)C[C@H](OC(=O)[C@H](O)[C@@H](NC(=O)OC(C)(C)C)c4ccccc4)C(C)=C1C3(C)C)[C@]1(OC(C)=O)CO[C@@H]1[C@@H](F)[C@@H]2O [Ik, 3'N-desbenzoyl-3'N-t-Butoxycarbonyl-6α-Fluoropaclitaxel] | 0.2 | 269 | –
3 | CC(=O)O[C@H]1C(=O)[C@@]2(C)[C@H]([C@H](OC(=O)c3ccccc3)[C@]3(O)C[C@H](OC(=O)[C@H](O)[C@@H](NC(=O)c4ccccc4)c4ccccc4)C(C)=C1C3(C)C)[C@]1(OC(C)=O)CO[C@@H]1[C@@H](O[N+](=O)[O-])[C@@H]2O [If, paclitaxel-6α-nitrate] | 1.5 | 132 | –
4 | CC(=O)O[C@H]1C(=O)[C@@]2(C)[C@H]([C@H](OC(=O)c3ccccc3)[C@]3(O)C[C@H](OC(=O)[C@H](O)[C@@H](NC(=O)c4ccccc4)c4ccccc4)C(C)=C1C3(C)C)[C@]1(OC(C)=O)CO[C@@H]1[C@@H](F)[C@@H]2O [Ia, 6α-Fluoropaclitaxel] | 1.4 | – | –
5 | CC(=O)O[C@H]1C(=O)[C@@]2(C)[C@H]([C@H](OC(=O)c3ccccc3)[C@]3(O)C[C@H](OC(=O)[C@H](O)[C@@H](NC(=O)c4ccccc4)c4ccccc4)C(C)=C1C3(C)C)[C@]1(OC(C)=O)CO[C@@H]1[C@@H](Br)[C@@H]2O [Ie, 6α-Bromopaclitaxel] | – | – | response vs control in vivo at 200 mg/kg (M109 lung carcinoma; dose 200 mg/kg): 214%; IC50 [1, 3]: 2.6 nM
6 | COCO[C@H]1[C@H](F)[C@H]2OC[C@@]2(OC(C)=O)[C@H]2[C@H](OC(=O)c3ccccc3)[C@]3(O)C[C@H](OC(=O)[C@H](O)[C@@H](NC(=O)OC(C)(C)C)c4ccccc4)C(C)=C([C@@H](OC(C)=O)C(=O)[C@@]21C)C3(C)C [Il, 3'N-desbenzoyl-3'N-t-Butoxycarbonyl-7-O-methoxymethyl-6a-Fluoropaclitaxel] | 2.5 | – | response vs control in vivo at 50 mg/kg (M109 lung carcinoma): 187%
7 | CC(=O)O[C@H]1C(=O)[C@@]2(C)[C@H]([C@H](OC(=O)c3ccccc3)[C@]3(O)C[C@H](OC(=O)[C@H](O)[C@@H](NC(=O)c4ccccc4)c4ccccc4)C(C)=C1C3(C)C)[C@]1(OC(C)=O)CO[C@@H]1[C@@H](Cl)[C@@H]2O [Ij, 6-α-Chloropaclitaxel] | – | 203 | IC50 [1, 3]: 1.2 nM
8 | COCO[C@H]1[C@H](F)[C@H]2OC[C@@]2(OC(C)=O)[C@H]2[C@H](OC(=O)c3ccccc3)[C@]3(O)C[C@H](OC(=O)[C@H](O)[C@@H](NC(=O)c4ccccc4)c4ccccc4)C(C)=C([C@@H](OC(C)=O)C(=O)[C@@]21C)C3(C)C [Ib, 7-O-Methoxymethyl-6α-Fluoropaclitaxel] | 1.3 | 162 | –
9 | CO[C@H]1[C@H](F)[C@H]2OC[C@@]2(OC(C)=O)[C@H]2[C@H](OC(=O)c3ccccc3)[C@]3(O)C[C@H](OC(=O)[C@H](O)[C@@H](NC(=O)c4ccccc4)c4ccccc4)C(C)=C([C@@H](OC(C)=O)C(=O)[C@@]21C)C3(C)C [Id, 7-O-Methyl-6α-Fluoropaclitaxel] | 0.83 | 147 | –
10 | CC(=O)O[C@H]1C(=O)[C@]2(C)C[C@@H](Cl)[C@H]3OC[C@@]3(OC(C)=O)[C@H]2[C@H](OC(=O)c2ccccc2)[C@]2(O)C[C@H](OC(=O)[C@H](O)[C@@H](NC(=O)c3ccccc3)c3ccccc3)C(C)=C1C2(C)C [Io, 7-Deoxy-6-β-Chloropaclitaxel] | – | – | response vs control in vivo at 25 mg/kg (M109 lung carcinoma): 166%; IC50 [1, 3]: 0.62 nM
11 | CC(=O)O[C@H]1C(=O)[C@]2(C)C[C@@H](Br)[C@H]3OC[C@@]3(OC(C)=O)[C@H]2[C@H](OC(=O)c2ccccc2)[C@]2(O)C[C@H](OC(=O)[C@H](O)[C@@H](NC(=O)c3ccccc3)c3ccccc3)C(C)=C1C2(C)C [Ip, 7-Deoxy-6-β-Bromopaclitaxel] | 0.72 | – | response vs control in vivo at 50 mg/kg (M109 lung carcinoma): 172%
12 | CSCO[C@H]1[C@H](F)[C@H]2OC[C@@]2(OC(C)=O)[C@H]2[C@H](OC(=O)c3ccccc3)[C@]3(O)C[C@H](OC(=O)[C@H](O)[C@@H](NC(=O)c4ccccc4)c4ccccc4)C(C)=C([C@@H](OC(C)=O)C(=O)[C@@]21C)C3(C)C [Ic, 7-O-Meththiomethyl-6α-Fluoropaclitaxel] | 3.3 | 147 | –
13 | CC(=O)O[C@H]1C(=O)[C@@]2(C)[C@H]([C@H](OC(=O)c3ccccc3)[C@]3(O)C[C@H](OC(=O)[C@H](O)[C@@H](NC(=O)c4ccccc4)c4ccccc4)C(C)=C1C3(C)C)[C@]1(OC(C)=O)CO[C@@H]1C[C@@H]2O [paclitaxel] | 1.53 to 2.73 | – | antitumor activity [2]: excellent antitumor activity in in vivo animal models
14 | CSCO[C@H]1[C@H](O[N+](=O)[O-])[C@H]2OC[C@@]2(OC(C)=O)[C@H]2[C@H](OC(=O)c3ccccc3)[C@]3(O)C[C@H](OC(=O)[C@H](O)[C@@H](NC(=O)c4ccccc4)c4ccccc4)C(C)=C([C@@H](OC(C)=O)C(=O)[C@@]21C)C3(C)C [Ih, 7-O-Methylthiomethylpaclitaxel-6α-nitrate] | 7.35 | – | response vs control in vivo at 195 mg/kg (M109 lung carcinoma): 132%
15 | CO[C@H]1[C@H](F)[C@H]2OC[C@@]2(OC(C)=O)[C@H]2[C@H](OC(=O)c3ccccc3)[C@]3(O)C[C@H](OC(=O)[C@H](O)[C@@H](NC(=O)OC(C)(C)C)c4ccccc4)C(C)=C([C@@H](OC(C)=O)C(=O)[C@@]21C)C3(C)C [In, 3'N-desbenzoyl-3'N-t-Butoxycarbonyl-7-O-methyl-6α-Fluoropaclitaxel] | – | – | response vs control in vivo at 25 mg/kg (M109 lung carcinoma): 144%
16 | COCO[C@H]1[C@H](O[N+](=O)[O-])[C@H]2OC[C@@]2(OC(C)=O)[C@H]2[C@H](OC(=O)c3ccccc3)[C@]3(O)C[C@H](OC(=O)[C@H](O)[C@@H](NC(=O)c4ccccc4)c4ccccc4)C(C)=C([C@@H](OC(C)=O)C(=O)[C@@]21C)C3(C)C [Ii, 7-O-Methoxymethylpaclitaxel-6α-nitrate] | 4.95 | – | response vs control in vivo at 195 mg/kg (M109 lung carcinoma): 141%
17 | CSCO[C@H]1[C@H](F)[C@H]2OC[C@@]2(OC(C)=O)[C@H]2[C@H](OC(=O)c3ccccc3)[C@]3(O)C[C@H](OC(=O)[C@H](O)[C@@H](NC(=O)OC(C)(C)C)c4ccccc4)C(C)=C([C@@H](OC(C)=O)C(=O)[C@@]21C)C3(C)C [Im, 3'N-desbenzoyl-3'N-t-Butoxycarbonyl-7-O-methylthiomethyl-6α-Fluoropaclitaxel] | – | – | IC50 [1, 3]: 1 nM
